Reference: ChEMBL document CHEMBL3862042 (J Med Chem, 2017)
pEC50, pIC50: −log10 of the molar value.

Experiments:
[1] = target: T1, Phosphatidylinositol 4-kinase type 2-alpha (Homo sapiens, UniProt Q9BTU6); assay: Inhibition of PI4K2A (unknown origin) assessed as remaining enzyme activity by ADP-Glo kinase assay relative to untreated control; set-up: concentration or dose not given beside the values
[2] = Cytotoxicity against human HeLa cells incubated for 3 days by MTT assay; format: toxicity, cell-based
Human rhinovirus 1A = assay: microbe, parasite or virus in culture; details: HeLa, 72 h
Coxsackievirus B3 = assay: microbe, parasite or virus in culture; details: Enterovirus B, Nancy, HeLa, 4 h
Hepatitis C virus [3] = assay: microbe, parasite or virus in culture; details: genotype 1b, Huh-7, 72 h
Hepatitis C virus [4] = assay: microbe, parasite or virus in culture; details: subtype 2a JFH1, Huh-7, 72 h
[5] = target: T1, Phosphatidylinositol 4-kinase type 2-alpha; assay: Inhibition of PI4K2A (unknown origin) by ADP-Glo kinase assay
[6] = target: Phosphatidylinositol 4-kinase alpha (Homo sapiens, UniProt P42356); assay: Inhibition of PI4KA (unknown origin) by ADP-Glo kinase assay
[7] = target: T2, Phosphatidylinositol 4-kinase beta (Homo sapiens, UniProt Q9UBF8); assay: Inhibition of PI4KB (unknown origin) at 1 uM by ADP-Glo kinase assay
[8] = target: Phosphatidylinositol 4,5-bisphosphate 3-kinase catalytic subunit alpha isoform (Homo sapiens, UniProt P42336); assay: Inhibition of PI3Kalpha (unknown origin) by ADP-Glo kinase assay
[9] = target: Phosphatidylinositol 4,5-bisphosphate 3-kinase catalytic subunit beta isoform (Homo sapiens, UniProt P42338); assay: Inhibition of PI3Kbeta (unknown origin) by ADP-Glo kinase assay
[10] = target: T3, Phosphatidylinositol 4,5-bisphosphate 3-kinase catalytic subunit delta isoform (Homo sapiens, UniProt O00329); assay: Inhibition of PI3Kdelta (unknown origin) by ADP-Glo kinase assay
T3 sequence (O00329 whole entry): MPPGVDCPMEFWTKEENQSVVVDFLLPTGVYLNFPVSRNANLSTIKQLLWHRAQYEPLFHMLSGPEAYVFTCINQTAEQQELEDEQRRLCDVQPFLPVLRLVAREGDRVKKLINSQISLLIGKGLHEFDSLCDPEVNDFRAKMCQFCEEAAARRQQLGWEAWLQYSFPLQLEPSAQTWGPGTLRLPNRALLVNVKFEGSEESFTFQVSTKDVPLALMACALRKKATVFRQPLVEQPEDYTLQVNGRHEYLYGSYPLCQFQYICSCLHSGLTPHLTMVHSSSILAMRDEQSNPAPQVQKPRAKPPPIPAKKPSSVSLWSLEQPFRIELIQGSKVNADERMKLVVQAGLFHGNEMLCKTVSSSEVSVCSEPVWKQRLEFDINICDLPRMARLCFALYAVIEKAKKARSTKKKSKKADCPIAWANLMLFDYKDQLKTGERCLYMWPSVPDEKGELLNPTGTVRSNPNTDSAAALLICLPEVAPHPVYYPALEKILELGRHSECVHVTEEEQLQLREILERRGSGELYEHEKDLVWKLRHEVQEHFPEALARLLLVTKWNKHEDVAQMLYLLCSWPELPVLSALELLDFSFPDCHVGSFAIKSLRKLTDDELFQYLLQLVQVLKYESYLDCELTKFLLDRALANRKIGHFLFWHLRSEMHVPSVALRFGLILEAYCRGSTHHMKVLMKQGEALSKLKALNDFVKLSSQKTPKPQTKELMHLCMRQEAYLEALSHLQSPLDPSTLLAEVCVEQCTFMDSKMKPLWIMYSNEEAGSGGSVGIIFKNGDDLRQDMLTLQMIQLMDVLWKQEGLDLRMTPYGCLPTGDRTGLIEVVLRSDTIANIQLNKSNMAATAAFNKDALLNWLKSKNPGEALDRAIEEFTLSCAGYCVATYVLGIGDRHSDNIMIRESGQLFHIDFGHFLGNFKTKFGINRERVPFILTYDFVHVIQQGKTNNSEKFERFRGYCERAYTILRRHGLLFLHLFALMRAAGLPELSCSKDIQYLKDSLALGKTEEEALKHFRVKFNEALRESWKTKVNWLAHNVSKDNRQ

[11] = target: Phosphatidylinositol 4,5-bisphosphate 3-kinase catalytic subunit gamma isoform (Homo sapiens, UniProt P48736); assay: Inhibition of PI3Kgamma (unknown origin) by ADP-Glo kinase assay
[12] = target: T2, Phosphatidylinositol 4-kinase beta; assay: Inhibition of PI4KB (unknown origin) by ADP-Glo kinase assay

T1 sequence (Q9BTU6 whole entry): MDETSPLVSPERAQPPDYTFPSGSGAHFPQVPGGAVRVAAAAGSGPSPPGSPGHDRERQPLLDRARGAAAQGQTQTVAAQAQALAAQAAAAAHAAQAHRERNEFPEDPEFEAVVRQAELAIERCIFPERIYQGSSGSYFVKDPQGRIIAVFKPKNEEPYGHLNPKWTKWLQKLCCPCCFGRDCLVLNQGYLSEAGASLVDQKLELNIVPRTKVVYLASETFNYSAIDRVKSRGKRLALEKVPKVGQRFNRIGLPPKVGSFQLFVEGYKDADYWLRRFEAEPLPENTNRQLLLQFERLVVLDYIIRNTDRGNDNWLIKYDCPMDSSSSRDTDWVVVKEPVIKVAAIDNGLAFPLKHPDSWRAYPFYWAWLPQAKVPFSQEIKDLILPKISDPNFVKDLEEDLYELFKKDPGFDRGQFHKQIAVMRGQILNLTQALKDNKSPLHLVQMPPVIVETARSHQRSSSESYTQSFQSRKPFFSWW
Sequence of Phosphatidylinositol 4-kinase alpha (P42356 whole entry): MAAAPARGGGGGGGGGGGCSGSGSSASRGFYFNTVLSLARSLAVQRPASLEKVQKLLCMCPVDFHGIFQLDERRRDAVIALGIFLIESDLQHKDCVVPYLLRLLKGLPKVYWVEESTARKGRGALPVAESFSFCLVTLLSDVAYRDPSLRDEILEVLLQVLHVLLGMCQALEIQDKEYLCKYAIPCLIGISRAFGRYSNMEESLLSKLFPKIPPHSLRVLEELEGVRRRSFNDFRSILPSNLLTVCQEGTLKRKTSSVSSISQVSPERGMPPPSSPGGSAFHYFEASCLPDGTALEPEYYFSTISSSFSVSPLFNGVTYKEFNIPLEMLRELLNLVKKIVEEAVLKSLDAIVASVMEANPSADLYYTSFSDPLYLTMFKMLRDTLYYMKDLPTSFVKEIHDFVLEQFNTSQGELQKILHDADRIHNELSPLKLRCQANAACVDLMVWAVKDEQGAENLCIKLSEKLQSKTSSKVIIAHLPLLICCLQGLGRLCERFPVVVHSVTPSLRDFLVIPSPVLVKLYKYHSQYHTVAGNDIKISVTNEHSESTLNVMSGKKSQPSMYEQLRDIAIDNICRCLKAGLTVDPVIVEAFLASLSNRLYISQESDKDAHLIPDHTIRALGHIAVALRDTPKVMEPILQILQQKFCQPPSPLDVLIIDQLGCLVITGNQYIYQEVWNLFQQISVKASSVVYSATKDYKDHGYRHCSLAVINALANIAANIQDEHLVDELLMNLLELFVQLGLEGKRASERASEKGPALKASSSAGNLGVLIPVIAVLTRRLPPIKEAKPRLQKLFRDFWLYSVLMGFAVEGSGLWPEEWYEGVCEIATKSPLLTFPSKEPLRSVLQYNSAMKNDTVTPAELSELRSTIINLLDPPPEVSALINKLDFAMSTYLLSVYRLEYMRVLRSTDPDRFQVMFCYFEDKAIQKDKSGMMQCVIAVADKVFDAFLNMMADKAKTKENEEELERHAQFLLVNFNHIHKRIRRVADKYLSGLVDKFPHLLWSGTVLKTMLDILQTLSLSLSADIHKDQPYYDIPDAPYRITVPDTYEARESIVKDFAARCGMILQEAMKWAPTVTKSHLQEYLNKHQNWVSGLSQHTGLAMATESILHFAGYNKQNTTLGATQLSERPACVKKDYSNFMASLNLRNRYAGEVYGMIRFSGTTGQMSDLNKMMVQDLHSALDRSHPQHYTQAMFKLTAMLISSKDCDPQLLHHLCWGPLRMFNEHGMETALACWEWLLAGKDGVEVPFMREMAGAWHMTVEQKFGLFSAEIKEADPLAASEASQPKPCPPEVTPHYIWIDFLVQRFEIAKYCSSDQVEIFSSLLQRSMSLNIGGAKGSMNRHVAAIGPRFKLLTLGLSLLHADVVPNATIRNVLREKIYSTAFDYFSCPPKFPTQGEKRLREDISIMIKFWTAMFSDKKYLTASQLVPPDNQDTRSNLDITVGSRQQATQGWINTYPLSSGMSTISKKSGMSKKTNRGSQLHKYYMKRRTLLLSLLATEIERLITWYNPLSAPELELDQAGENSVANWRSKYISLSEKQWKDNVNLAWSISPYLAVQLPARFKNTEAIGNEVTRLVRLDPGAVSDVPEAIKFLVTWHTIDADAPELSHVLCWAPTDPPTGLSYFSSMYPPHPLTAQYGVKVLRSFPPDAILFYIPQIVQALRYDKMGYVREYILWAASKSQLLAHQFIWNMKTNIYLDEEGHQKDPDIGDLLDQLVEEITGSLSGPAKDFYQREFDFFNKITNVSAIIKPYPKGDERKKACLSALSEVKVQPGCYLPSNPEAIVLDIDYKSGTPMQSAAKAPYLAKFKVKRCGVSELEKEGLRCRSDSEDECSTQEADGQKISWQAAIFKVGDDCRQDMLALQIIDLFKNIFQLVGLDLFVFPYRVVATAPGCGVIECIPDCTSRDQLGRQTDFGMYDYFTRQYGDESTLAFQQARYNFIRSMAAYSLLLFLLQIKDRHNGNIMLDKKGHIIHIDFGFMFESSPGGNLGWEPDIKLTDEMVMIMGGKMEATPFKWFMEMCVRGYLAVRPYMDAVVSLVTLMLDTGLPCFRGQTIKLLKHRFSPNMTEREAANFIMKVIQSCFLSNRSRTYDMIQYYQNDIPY
Sequence of Phosphatidylinositol 4,5-bisphosphate 3-kinase catalytic subunit beta isoform (P42338 whole entry, canonical isoform): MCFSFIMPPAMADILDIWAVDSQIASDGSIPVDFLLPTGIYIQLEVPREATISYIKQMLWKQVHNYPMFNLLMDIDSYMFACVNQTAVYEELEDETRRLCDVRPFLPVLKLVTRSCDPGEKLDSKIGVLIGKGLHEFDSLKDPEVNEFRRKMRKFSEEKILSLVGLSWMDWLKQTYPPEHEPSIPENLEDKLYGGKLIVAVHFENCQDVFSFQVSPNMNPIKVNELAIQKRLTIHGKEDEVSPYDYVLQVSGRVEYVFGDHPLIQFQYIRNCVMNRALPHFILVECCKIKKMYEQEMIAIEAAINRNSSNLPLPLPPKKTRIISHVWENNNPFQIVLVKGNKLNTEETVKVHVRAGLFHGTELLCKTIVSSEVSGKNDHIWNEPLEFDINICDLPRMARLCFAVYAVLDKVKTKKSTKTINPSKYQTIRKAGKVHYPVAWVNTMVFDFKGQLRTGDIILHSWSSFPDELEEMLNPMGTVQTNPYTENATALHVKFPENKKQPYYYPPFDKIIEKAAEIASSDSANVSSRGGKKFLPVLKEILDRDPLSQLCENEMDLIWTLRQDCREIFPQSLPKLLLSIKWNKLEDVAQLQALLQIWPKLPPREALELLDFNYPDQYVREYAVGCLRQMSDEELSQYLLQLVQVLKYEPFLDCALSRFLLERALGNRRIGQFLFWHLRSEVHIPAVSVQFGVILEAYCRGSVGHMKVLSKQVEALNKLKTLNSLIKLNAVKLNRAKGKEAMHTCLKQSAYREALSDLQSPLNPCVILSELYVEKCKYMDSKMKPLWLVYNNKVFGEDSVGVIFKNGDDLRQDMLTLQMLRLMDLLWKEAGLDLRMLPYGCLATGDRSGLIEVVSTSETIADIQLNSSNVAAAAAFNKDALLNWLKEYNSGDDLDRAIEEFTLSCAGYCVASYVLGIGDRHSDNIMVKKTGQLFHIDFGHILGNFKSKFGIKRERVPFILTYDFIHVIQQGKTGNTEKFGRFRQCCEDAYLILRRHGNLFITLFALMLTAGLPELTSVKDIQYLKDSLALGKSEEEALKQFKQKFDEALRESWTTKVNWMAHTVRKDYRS
Sequence of Phosphatidylinositol 4,5-bisphosphate 3-kinase catalytic subunit alpha isoform (P42336 whole entry, canonical isoform): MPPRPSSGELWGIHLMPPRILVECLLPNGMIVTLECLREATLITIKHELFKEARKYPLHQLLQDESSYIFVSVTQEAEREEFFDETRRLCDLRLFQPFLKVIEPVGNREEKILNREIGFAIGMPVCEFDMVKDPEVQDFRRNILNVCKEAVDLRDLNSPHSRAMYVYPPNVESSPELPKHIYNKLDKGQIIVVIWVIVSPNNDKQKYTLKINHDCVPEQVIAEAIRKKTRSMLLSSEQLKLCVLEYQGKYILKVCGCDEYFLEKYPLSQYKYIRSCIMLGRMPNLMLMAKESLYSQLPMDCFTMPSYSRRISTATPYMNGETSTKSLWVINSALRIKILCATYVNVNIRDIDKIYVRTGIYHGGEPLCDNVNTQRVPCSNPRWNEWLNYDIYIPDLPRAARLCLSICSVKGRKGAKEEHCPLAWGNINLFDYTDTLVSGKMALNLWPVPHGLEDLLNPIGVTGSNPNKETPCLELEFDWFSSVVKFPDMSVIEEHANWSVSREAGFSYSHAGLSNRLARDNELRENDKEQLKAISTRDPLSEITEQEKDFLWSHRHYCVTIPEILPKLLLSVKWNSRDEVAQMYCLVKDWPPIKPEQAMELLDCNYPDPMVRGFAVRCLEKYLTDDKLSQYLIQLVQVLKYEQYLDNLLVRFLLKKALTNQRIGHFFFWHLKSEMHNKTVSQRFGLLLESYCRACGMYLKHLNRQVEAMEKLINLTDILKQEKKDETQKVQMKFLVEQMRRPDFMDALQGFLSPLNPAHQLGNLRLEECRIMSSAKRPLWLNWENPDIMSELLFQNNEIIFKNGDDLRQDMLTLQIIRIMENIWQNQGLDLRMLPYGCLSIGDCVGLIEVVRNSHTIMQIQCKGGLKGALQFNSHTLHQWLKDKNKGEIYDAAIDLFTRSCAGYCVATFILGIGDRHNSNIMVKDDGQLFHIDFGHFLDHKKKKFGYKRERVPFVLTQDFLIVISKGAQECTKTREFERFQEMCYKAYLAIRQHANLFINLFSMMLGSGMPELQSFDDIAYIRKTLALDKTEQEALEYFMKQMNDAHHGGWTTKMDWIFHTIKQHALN

Row | Compound | Activity [1] | CC50 at 72 h [2] | pEC50 (Human rhinovirus 1A) | pEC50 (Coxsackievirus B3) | pEC50 (Hepatitis C virus [3]) | pEC50 (Hepatitis C virus [4]) | other results
1 | CCc1cc(CNc2cc(Cl)nn3c(-c4ccc(OC)c(S(=O)(=O)NCCN(C)C)c4)c(C)nc23)ccn1 | 100% | 5.56 µM | > 8.00 | 6.82 | 6.46 | 5.07 | –
2 | COc1ccc(-c2c(C)nc3c(NCCNC(C)=O)cc(Cl)nn23)cc1S(=O)(=O)N(C)C | 104% | 84.2 µM | 6.15 | 5.88 | 6.23 | < 4.35 | –
3 | C=CCNS(=O)(=O)c1cc(-c2c(C)nc3c(NCCNC(C)=O)cc(Cl)nn23)ccc1OC | 93% | 445 µM | 6.00 | 5.27 | 5.57 | 4.44 | –
4 | CCc1cc(CNc2cc(Cl)nn3c(-c4ccc(OC)cc4)c(C)nc23)ccn1 | 101% | – | – | – | – | – | –
5 | CCc1cc(CNc2cc(Cl)nn3c(-c4ccc(OC)c(S(=O)(=O)NCCOC)c4)c(C)nc23)ccn1 | 104% | 9.14 µM | > 8.00 | > 7.70 | 6.38 | 4.55 | –
6 | CCc1cc(CNc2cc(Cl)nn3c(-c4ccc(OC)c(S(=O)(=O)NCCO)c4)c(C)nc23)ccn1 | 106% | 18.3 µM | 7.12 | 7.24 | 7.54 | 4.84 | pIC50 [5]: < 5.00; pIC50 [6]: 4.87; inhibition [7]: 50%; pIC50 [8]: > 5.00; pIC50 [9]: > 5.00; pIC50 [10]: > 5.00; pIC50 [11]: > 5.00
7 | COc1ccc(-c2c(C)nc3c(NCCNC(C)=O)cc(Cl)nn23)cc1S(=O)(=O)NCCN(C)C | 105% | – | – | – | – | – | –
8 | CCc1cc(CNc2cc(Cl)nn3c(-c4ccc(OC)c(S(=O)(=O)NC(CC)CO)c4)c(C)nc23)ccn1 (configuration not stated) | 104% | 17.9 µM | > 8.00 | 6.32 | > 7.70 | 5.03 | –
9 | COc1ccc(-c2c(C)nc3c(NCCNC(C)=O)cc(Cl)nn23)cc1S(=O)(=O)N1CCC(O)CC1 | 88% | – | – | – | – | – | –
10 | COc1ccc(-c2c(C)nc3c(NCCNC(C)=O)cc(Cl)nn23)cc1S(=O)(=O)NCCO | 112% | – | – | – | – | – | –
11 | COc1ccc(-c2c(C)nc3c(NCCNC(C)=O)cc(Cl)nn23)cc1S(=O)(=O)N1CCOCC1 | 88% | 89.2 µM | 6.18 | 7.42 | 5.99 | < 4.35 | –
12 | CC(=O)NCCNc1cc(Cl)nn2c(-c3cccc(S(=O)(=O)N(C)C)c3)c(C)nc12 | – | – | – | – | – | – | pIC50 [12]: 7.27; pIC50 [6]: < 4.00
13 | COCCNS(=O)(=O)c1cc(-c2c(C)nc3c(NCCNC(C)=O)cc(Cl)nn23)ccc1OC | 107% | – | – | – | – | – | –
14 | COc1ccc(-c2c(C)nc3c(NCCNC(C)=O)cc(Cl)nn23)cc1S(=O)(=O)n1cccn1 | 83% | – | – | – | – | – | –
15 | CNCCNS(=O)(=O)c1cc(-c2c(C)nc3c(NCCNC(C)=O)cc(Cl)nn23)ccc1OC | 73% | – | – | – | – | – | –
16 | CCc1cc(CNc2cc(Cl)nn3c(-c4ccc(OC)c(S(=O)(=O)N5CCC(CO)CC5)c4)c(C)nc23)ccn1 | 115% | – | – | – | – | – | –
17 | CCc1cc(CNc2cc(Cl)nn3c(-c4ccc(OC)c(S(=O)(=O)N5CCC(O)CC5)c4)c(C)nc23)ccn1 | 109% | 8.4 µM | > 8.00 | 7.77 | 7.70 | 4.69 | –
18 | CCc1cc(CNc2cc(Cl)nn3c(-c4ccc(OC)c(S(=O)(=O)n5cccn5)c4)c(C)nc23)ccn1 | 112% | 61.9 µM | > 8.00 | 6.86 | 6.02 | < 4.35 | –
19 | CCc1cc(CNc2cc(Cl)nn3c(-c4ccc(OC)c(S(=O)(=O)N(C)C)c4)c(C)nc23)ccn1 | 106% | – | – | – | – | – | –
20 | CCc1cc(CNc2cc(Cl)nn3c(-c4ccc(OC)c(S(=O)(=O)N5CCCCC5)c4)c(C)nc23)ccn1 | 99% | – | – | – | – | – | –
21 | CCc1cc(CNc2cc(Cl)nn3c(-c4ccc(OC)c(S(=O)(=O)NC5CC5)c4)c(C)nc23)ccn1 | 114% | – | – | – | – | – | –
22 | COc1ccc(-c2c(C)nc3c(NCCNC(C)=O)cc(Cl)nn23)cc1S(=O)(=O)N1CCCCC1 | 60% | – | – | – | – | – | –
23 | CCc1cc(CNc2cc(Cl)nn3c(-c4ccc(OC)c(S(=O)(=O)NC5CCC(N)CC5)c4)c(C)nc23)ccn1 (configuration not stated) | 101% | 5.76 µM | 7.16 | 7.25 | 5.04 | 4.58 | –
24 | CCc1cc(CNc2cc(Cl)nn3c(-c4cccc(S(=O)(=O)N(C)C)c4)c(C)nc23)ccn1 | – | 15.4 µM | 7.21 | 5.96 | 6.41 | 5.06 | –
25 | C=CCNS(=O)(=O)c1cc(-c2c(C)nc3c(NCc4ccnc(CC)c4)cc(Cl)nn23)ccc1OC | 105% | 6.85 µM | > 8.00 | 7.92 | 6.18 | 4.70 | –
26 | COc1ccc(-c2c(C)nc3c(NCCNC(C)=O)cc(Cl)nn23)cc1S(=O)(=O)NC1CCC(N)CC1 (configuration not stated) | 102% | – | – | – | – | – | –
27 | COc1ccc(-c2c(C)nc3c(NCCNC(C)=O)cc(Cl)nn23)cc1S(=O)(=O)N1CCC(CO)CC1 | 85% | 131 µM | 5.27 | 5.30 | 5.74 | < 4.35 | –
28 | CCc1cc(CNc2cc(Cl)nn3c(-c4ccc(OC)c(S(=O)(=O)N5CCOCC5)c4)c(C)nc23)ccn1 | 97% | 25.7 µM | > 8.00 | 7.08 | 5.99 | 4.59 | –
29 | COc1ccc(-c2c(C)nc3c(NCCNC(C)=O)cc(Cl)nn23)cc1S(=O)(=O)NC1CC1 | 108% | – | – | – | – | – | –
30 | CCC(CO)NS(=O)(=O)c1cc(-c2c(C)nc3c(NCCNC(C)=O)cc(Cl)nn23)ccc1OC (configuration not stated) | 77% | > 50 µM | 5.17 | 5.78 | 5.47 | < 4.35 | –
